The test system of this assay is Alternaria alternata. Kind of assay: Cell test on Alternaria alternata. Type of assay: cell-based. The settings on record: under similar conditions (cell test, 2 ppm). The procedure: Cell Test on Alternaria alternata
The growth of Alternaria alternata is performed on PDA medium at 20° C. under black light during 14 days. The PDA medium is prepared by mixing 39 grams of PDA (Merck) in 1 liter of demineralized water.
The medium is sterilized by autoclave 15 minutes at 121° C. After 14 days of growth, the spores of Alternaria alternata are recovered in sterilized water and the concentration of spores adjusted to 10^6 spores per ml.
The compounds is solubilized in DMSO and added to sterile liquid glucose/mycopeptone medium (14.6 g/l of D-glucose, 7.1 g/l of mycological peptone (Oxoid) and 1.4 g/l of yeast extract (Merck)) at a concentration of 2 ppm.
The medium is inoculated with the spore suspension at a concentration of 10^5 spores per ml.
The efficacy of the compounds is assessed by OD measurement at 620 nm after 5 days at 20° C. in comparison with a control.

Molecules are shown by their SMILES.

For the compound `O=C(NOCc1ncc(C(F)(F)F)cc1Cl)c1c(Cl)cccc1Cl` [Compound 501, 2,6-dichloro-N-{[3-chloro-5-(trifluoromethyl)pyridin-2-yl]methoxy}benzamide], the activity result is on record as “did not show any activity”.

With `O=C(NOCc1ncc(C(F)(F)F)cc1Cl)c1c(F)cccc1F` [Compound 502, N-{[3-chloro-5-(trifluoromethyl)pyridin-2-yl]methoxy}-2,6-difluorobenzamide], the activity entry is on record as “did not show any activity”.

For the origin of these results see patent US20090253755A1, “N-[(PYRIDIN-2-YL) METHOXY] BENZAMIDE DERIVATIVES AND RELATED COMPOUNDS AS FUNGICIDES” (Bayer Cropscience SA, priority 2006, published 2009).
